# Results taken from patent US10519147B2 (Merck Sharp & Dohme Corp., priority 2015, dated 2019).
# Molecular target: T1, human Nav1.7 (Homo sapiens, UniProt Q15858)
# T1 construct: expressed in transfected cells; host or cells: HEK 293
# Assay: IonWorks Quattro automated patch-clamp, inactivated state block of Nav1.7
# Assay type: cell-based
# Conditions: not given
# Experimental: Compounds were tested on human Nav1.7 and Nav1.5 channels stably expressed in HEK 293 cells. […] Cells were sealed on a planar substrate using the Population Patch […] (PPC) technology. Electrical access was obtained using both nystatin and amphotericin. A double-pulse protocol was used for the determination of IC50 values for inactivated state block. Nav1.7 and Nav1.5 expressing cells were voltage clamped at −100 mV and −110 mV, respectively. A depolarizing prepulse to −10 mV (Nav1.7) or −30 mV (Nav1.5) for 1000 ms followed by a 10 ms repolarization to −100 mV (Nav1.7) or −110 mV (Nav1.5) was given to generate fractional channel inactivation of 50%, followed by a 10 ms test pulse to −10 mV (Nav1.7) or −30 mV (Nav1.5) to measure peak current in control conditions and after compound addition. The following recording solutions were used (mM). External: 150 NaCl, 2 CaCl2, 5 KCl, 1 Mg Cl2, 10 HEPES, 12 Dextrose; internal: 120 CsF, 30 CsCl, 10 EGTA, 5 HEPES, 5 NaF, 2 MgCl2.
# For all electrophysiology experiments, offline analysis was used to determine percent inhibition as a function of drug concentration. IC50 values were determined by fitting to the Hill equation.
# T1 sequence (Q15858 whole entry): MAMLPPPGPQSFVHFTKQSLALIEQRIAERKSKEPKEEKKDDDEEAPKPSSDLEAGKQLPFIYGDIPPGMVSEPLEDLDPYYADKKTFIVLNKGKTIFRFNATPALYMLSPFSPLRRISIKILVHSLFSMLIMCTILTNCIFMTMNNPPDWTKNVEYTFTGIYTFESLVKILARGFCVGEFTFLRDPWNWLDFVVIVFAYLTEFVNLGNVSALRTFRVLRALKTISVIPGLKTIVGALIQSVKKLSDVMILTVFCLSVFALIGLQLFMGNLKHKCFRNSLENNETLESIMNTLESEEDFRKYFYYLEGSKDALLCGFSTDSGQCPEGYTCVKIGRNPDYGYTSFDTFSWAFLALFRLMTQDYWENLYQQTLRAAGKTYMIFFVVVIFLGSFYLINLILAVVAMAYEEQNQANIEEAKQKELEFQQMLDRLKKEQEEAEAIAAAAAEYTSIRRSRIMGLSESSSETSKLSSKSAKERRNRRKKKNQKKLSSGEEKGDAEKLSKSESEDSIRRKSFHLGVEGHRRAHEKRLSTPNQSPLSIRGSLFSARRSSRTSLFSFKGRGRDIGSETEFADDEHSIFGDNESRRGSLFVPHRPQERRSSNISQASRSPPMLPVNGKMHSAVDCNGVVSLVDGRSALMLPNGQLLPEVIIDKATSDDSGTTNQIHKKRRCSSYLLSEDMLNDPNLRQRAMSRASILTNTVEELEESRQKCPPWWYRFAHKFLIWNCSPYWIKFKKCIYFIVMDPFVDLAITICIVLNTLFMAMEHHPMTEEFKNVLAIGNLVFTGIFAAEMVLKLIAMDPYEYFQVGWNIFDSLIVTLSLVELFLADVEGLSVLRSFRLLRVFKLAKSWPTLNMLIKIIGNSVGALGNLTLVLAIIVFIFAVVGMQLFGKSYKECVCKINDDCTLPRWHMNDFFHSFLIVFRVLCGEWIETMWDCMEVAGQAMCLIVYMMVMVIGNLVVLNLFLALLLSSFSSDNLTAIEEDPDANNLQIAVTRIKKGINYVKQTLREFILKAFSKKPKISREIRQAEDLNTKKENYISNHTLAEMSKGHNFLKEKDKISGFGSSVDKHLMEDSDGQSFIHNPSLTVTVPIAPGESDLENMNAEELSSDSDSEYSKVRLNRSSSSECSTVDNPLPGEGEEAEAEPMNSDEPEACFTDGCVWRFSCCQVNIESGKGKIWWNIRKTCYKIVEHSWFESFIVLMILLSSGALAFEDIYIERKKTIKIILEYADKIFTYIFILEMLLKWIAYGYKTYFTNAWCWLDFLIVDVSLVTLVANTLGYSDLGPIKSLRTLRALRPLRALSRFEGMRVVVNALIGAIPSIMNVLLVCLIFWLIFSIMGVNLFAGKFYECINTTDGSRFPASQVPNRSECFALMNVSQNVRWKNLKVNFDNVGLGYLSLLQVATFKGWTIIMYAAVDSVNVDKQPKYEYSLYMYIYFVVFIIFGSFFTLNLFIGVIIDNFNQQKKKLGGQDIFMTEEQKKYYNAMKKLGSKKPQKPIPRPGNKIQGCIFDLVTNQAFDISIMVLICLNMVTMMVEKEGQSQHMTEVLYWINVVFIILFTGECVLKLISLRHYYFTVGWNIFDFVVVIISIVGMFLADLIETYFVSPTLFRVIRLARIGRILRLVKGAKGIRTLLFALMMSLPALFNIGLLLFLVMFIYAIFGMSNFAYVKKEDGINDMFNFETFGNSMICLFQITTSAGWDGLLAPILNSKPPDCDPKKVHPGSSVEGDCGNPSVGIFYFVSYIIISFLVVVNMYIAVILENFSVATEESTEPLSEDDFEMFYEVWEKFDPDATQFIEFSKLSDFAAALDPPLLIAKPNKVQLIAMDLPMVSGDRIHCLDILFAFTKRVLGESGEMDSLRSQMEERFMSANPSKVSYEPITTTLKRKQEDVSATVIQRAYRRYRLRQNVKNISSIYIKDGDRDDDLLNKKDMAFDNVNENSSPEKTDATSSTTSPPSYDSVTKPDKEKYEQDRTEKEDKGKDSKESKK
row,Structure (SMILES),IC50
1,"CC(CCCNc1cc(F)c(S(=O)(=O)Nc2nccs2)cc1Cl)NC[C@@H]1CCCN1 (single isomer, unassigned)",12 nM

# Same assay, conditions: channels stably expressed in HEK 293 cells; double-pulse protocol, inactivated state block; read-out: potency for the Nav 1.7 sodium ion channel (IC50, as measured by IonWorks)
row,Structure (SMILES),IC50
1,CC(CCCNc1cc(F)c(S(=O)(=O)Nc2nccs2)cc1Cl)NC[C@@H]1CCCN1 (mixture of isomers),11 nM
2,"O=S(=O)(Nc1nccs1)c1cc(Cl)c(NCCCCNC[C@H]2CCCCN2)cc1F [Ex 1-05, 5-chloro-2-fluoro-4-[(4-{[(2R)-piperidin-2-ylmethyl]amino}butyl)amino]-N-1,3-thiazol-2-ylbenzenesulfonamide]",10 nM
3,"O=S(=O)(Nc1nccs1)c1cc(Cl)c(NCCCCNC[C@@H]2CCCN2)cc1F [Ex 1-06, 5-chloro-2-fluoro-4-[(4-{[(2S)-pyrrolidin-2-yl-methyl]amino}butyl)-amino]-N-1,3-thiazol-2-yl-benzenesulfonamide]",15 nM
4,"CC(C)(CN)NCCCCNc1cc(F)c(S(=O)(=O)Nc2nccs2)cc1Cl [Ex 1-10, 4-({4-[(2-amino-1,1-dimethylethyl)amino]-butyl}amino)-5-chloro-2-fluoro-N-1,3-thiazol-2-yl-benzenesulfonamide]",28 nM
5,"CN(CCN)CCCCNc1cc(F)c(S(=O)(=O)Nc2nccs2)cc1Cl [Ex 1-15, 4-({4-[(2-aminoethyl) (methyl)amino]butyl}amino)-5-chloro-2-fluoro-N-1,3-thiazol-2-ylbenzenesulfonamide]",29 nM
6,"N[C@H]1CCCC[C@H]1NCCCCNc1cc(F)c(S(=O)(=O)Nc2nccs2)cc1Cl [Ex 1-30, 4-[(4-{[(1R,2S)-2-aminocyclohexyl]amino}butyl)amino]-5-chloro-2-fluoro-N-1,3-thiazol-2-ylbenzenesulfonamide]",19 nM
7,"O=S(=O)(Nc1nccs1)c1cc(Cl)c(NCCCCNCC2CNC2)cc1F [Ex 5-03, 4-((4-((azetidin-3-ylmethyl)amino)butyl)amino)-5-chloro-2-fluoro-N-(thiazol-2-yl)benzenesulfonamide]",34 nM
8,CNCCNCCCCNc1cc(F)c(S(=O)(=O)Nc2nccs2)cc1Cl [Ex 5-04],12 nM
9,"O=S(=O)(Nc1nccs1)c1cc(Cl)c(NCCCCNC[C@H]2CCCN2)cc1F [Ex 7-6, (R)-5-chloro-2-fluoro-4-((4-((pyrrolidin-2-ylmethyl)amino)butyl)amino)-N-(thiazol-2-yl)benzenesulfonamide]",34 nM
10,"O=S(=O)(Nc1ncns1)c1cc(Cl)c(NCCCCNC[C@@H]2CCCN2)cc1F [Ex 7-8, 5-chloro-2-fluoro-4-[(4-{[(2S)-pyrrolidin-2-ylmethyl]amino}butyl)amino]-N-1,2,4-thiadiazol-5-ylbenzenesulfonamide]",10 nM
11,"O=S(=O)(Nc1ncc(Cl)s1)c1cc(Cl)c(NCCCCNC[C@@H]2CCCN2)cc1F [Ex 7-9, 5-chloro-N-(5-chloro-1,3-thiazol-2-yl)-2-fluoro-4-[(4-{[(2S)-pyrrolidin-2-ylmethyl]amino}butyl)amino]benzenesulfonamide]",29 nM
12,"O=S(=O)(Nc1nccs1)c1cc(Br)c(NCCCCNC[C@@H]2CCCN2)cc1F [Ex 7-10, 5-bromo-2-fluoro-4-[(4-{[(2S)-pyrrolidin-2-ylmethyl]amino}butyl)amino]-N-1,3-thiazol-2-ylbenzenesulfonamide]",16 nM
13,"O=S(=O)(Nc1ncc(F)s1)c1cc(Cl)c(NCCCCNC[C@@H]2CCCN2)cc1F [Ex 7-11, 5-chloro-2-fluoro-N-(5-fluoro-1,3-thiazol-2-yl)-4-[(4-{[(2S)-pyrrolidin-2-ylmethyl]amino}butyl)amino]benzenesulfonamide]",9.9 nM
14,"C[C@@H]1CN[C@H](CNCCCCNc2cc(F)c(S(=O)(=O)Nc3nccs3)cc2Cl)C1 [Ex 8-09, 5-chloro-2-fluoro-4-{[4-({[(2S,4S)-4-methylpyrrolidin-2-yl]-methyl}amino)butyl]amino}-N-1,3-thiazol-2-yl-benzenesulfonamide]",18 nM
15,"C[C@H]1CC[C@@H](CNCCCCNc2cc(F)c(S(=O)(=O)Nc3nccs3)cc2Cl)N1 [Ex 8-10, 5-chloro-2-fluoro-4-{[4-({[(2S,5S)-5-methylpyrrolidin-2-yl]-methyl}amino)butyl]amino}-N-1,3-thiazol-2-yl-benzenesulfonamide]",16 nM
16,"O=S(=O)(Nc1nccs1)c1cc(Cl)c(NCCCCNC[C@@H]2C[C@H](C(F)(F)F)CN2)cc1F [Ex 8-12, 5-chloro-2-fluoro-N-1,3-thiazol-2-yl-4-{[4-({[(2S,4S)-4-(trifluoromethyl)-pyrrolidin-2-yl]methyl}amino)butyl]amino}benzenesulfonamide]",21 nM

# Further lines, results first:
row,IC50,Structure (SMILES)
1,14 nM,"O=S(=O)(Nc1ncns1)c1cc(Cl)c(NCCCCNC[C@H]2CCN2)cc1F [Ex 13-02, 4-[(4-{[(2R)-azetidin-2-yl-methyl]-amino}butyl)amino]-5-chloro-2-fluoro-N-1,2,4-thiadiazol-5-yl-benzene-sulfonamide]"
2,14 nM,"O=S(=O)(Nc1ncns1)c1cc(Cl)c(NCCCCNC[C@@H]2CCN2)cc1F [Ex 14-04, 4-[(4-{[(2S)-azetidin-2-yl-methyl]-amino}butyl)amino]-5-chloro-2-fluoro-N-1,2,4-thiadiazol-5-ylbenzene-sulfonamide]"
3,12 nM,"C[C@H](N)CNCCCCNc1cc(F)c(S(=O)(=O)Nc2ncns2)cc1Cl [Ex 15-05, 4-[(4-{[(2S)-2-aminopropyl]amino}butyl)amino]-5-chloro-2-fluoro-N-1,2,4-thiadiazol-5-ylbenzenesulfonamide]"
4,15 nM,"O=S(=O)(Nc1ncns1)c1cc(Cl)c(NCCCCNC2CNC2)cc1F [Ex 16-01, 4-{[4-(azetidin-3-ylamino)-butyl]-amino}-5-chloro-2-fluoro-N-1,2,4-thiadiazol-5-ylbenzenesulfonamide]"
5,11 nM,"O=S(=O)(Nc1ncc(F)s1)c1cc(Br)c(NCCCCNC[C@H]2CCCCN2)cc1F [Ex 16-04, 5-bromo-2-fluoro-N-(5-fluoro-1,3-thiazol-2-yl)-4-[(4-{[(2R)-piperidin-2-ylmethyl]amino}-butyl]amino]benzene-sulfonamide]"
6,15 nM,"C[C@H](CN)NCCCCNc1cc(F)c(S(=O)(=O)Nc2nccs2)cc1Cl [Ex 16-08, 4-[(4-{[(1R)-2-amino-1-methylethyl]-amino}butyl)-amino]-5-chloro-2-fluoro-N-1,3-thiazol-2-ylbenzenesulfonamide]"
7,5.1 nM,"O=S(=O)(Nc1ncns1)c1cc(Cl)c(NCCCCNC[C@H]2CCCCN2)cc1F [Ex 16-15, 5-chloro-2-fluoro-4-[(4-{[(2R)-piperidin-2-yl-methyl]amino}butyl)-amino]-N-1,2,4-thiadiazol-5-yl-benzenesulfonamide]"
8,18 nM,"O=S(=O)(Nc1ncc(F)s1)c1cc(Cl)c(NCCCCNCC[C@H]2CCCN2)cc1F [Ex 16-18, 5-chloro-2-fluoro-N-(5-fluoro-1,3-thiazol-2-yl)-4-{[4-({2-[(2R)-pyrrolidin-2yl]-ethyl}amino)butyl]-amino} benzenesulfonamide]"
9,11 nM,"O=S(=O)(Nc1ncns1)c1cc(Cl)c(NCCCCN[C@@H]2CCNC2)cc1F [Ex 16-19, 5-chloro-2-fluoro-4-({4-[(3R)-pyrrolidin-3-ylamino]-butyl}amino)-N-1,2,4-thiadiazol-5-ylbenzene-sulfonamide]"
10,28 nM,"C[C@H](CCN)NCCCCNc1cc(F)c(S(=O)(=O)Nc2nccs2)cc1Cl [Ex 16-26, 4-[(4-{[(1R)-3-amino-1-methylpropyl]amino}butyl)amino]-5-chloro-2-fluoro-N-1,3-thiazol-2-ylbenzene-sulfonamide]"
11,56 nM,"C[C@H](CCN)NCCCCNc1cc(F)c(S(=O)(=O)Nc2ncns2)cc1Cl [Ex 16-29, 4-[(4-{[(1R)-3-amino-1-methylpropyl]amino}butyl)-amino]-5-chloro-2-fluoro-N-1,2,4-thiadiazol-5-yl-benzenesulfonamide]"
12,12 nM,"NCCNCCCCNc1cc(F)c(S(=O)(=O)Nc2ncns2)cc1Cl [Ex 16-33, 4-({4-[(2-aminoethyl)-amino]butyl}amino)-5-chloro-2-fluoro-N-1,2,4-thiadiazol-5-ylbenzene-sulfonamide]"
13,29 nM,"C[C@@H](N)CCNCCCCNc1cc(F)c(S(=O)(=O)Nc2nccs2)cc1Cl [Ex 16-34, 4-[(4-{[(3R)-3-aminobutyl]-amino}butyl)amino]-5-chloro-2-fluoro-N-1,3-thiazol-2-ylbenzene-sulfonamide]"
14,14 nM,"NCCCNCCCCNc1cc(F)c(S(=O)(=O)Nc2ncc(F)s2)cc1Cl [Ex 16-35, 4-({4[(3-aminopropyl)amino]-butyl}amino)-5-chloro-2-fluoro-N-(5-fluoro-1,3-thiazol-2-yl)benzene-sulfonamide]"
15,15 nM,"O=S(=O)(Nc1ncc(F)s1)c1cc(Br)c(NCCCCN[C@@H]2CCNC2)cc1F [Ex 16-36, 5-bromo-2-fluoro-N-(5-fluoro-1,3-thiazol-2-yl)-4-({4-[(3R)-pyrrolidin-3-yl-amino]butyl}amino) benzene-sulfonamide]"
16,19 nM,"O=S(=O)(Nc1nccs1)c1cc(Br)c(NCCCCN[C@@H]2CCNC2)cc1F [Ex 16-37, 5-bromo-2-fluoro-4-({4-[(3R)-pyrrolidin-3-ylamino]-butyl}amino)-N-1,3-thiazol-2-ylbenzenesulfonamide]"
17,14 nM,"O=S(=O)(Nc1nccs1)c1cc(Cl)c(NCCCCN[C@H]2CCCCNC2)cc1F [Ex 16-41, (S)-4-{[4-(azepan-3-ylamino)-butyl]amino}-5-chloro-2-fluoro-N-1,3-thiazol-2-yl-benzenesulfonamide]"
